These results are taken from PubChem BioAssay AID256 (DTP/NCI, 2004).

The assay relates to CD2F1 mice, L1210 leukemia ip, survival T/C. The assay can be described thus: NCI In Vivo Anticancer Drug Screen. Data for tumor model L1210 Leukemia (intraperitoneal) in CD2F1 (CDF1) mice. Particulars: higher = longer survival. The method in brief:
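Mice carrying a transplanted tumor received test compound or vehicle alone. The value is the measurement in the treated group divided by that in the vehicle-treated control group.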

[1] abbreviates: endpoint: mean survival time, dose: 50.0 mg/kg/injection, schedule: Q01DX009 (ip), vehicle: saline with Tween-80.
Where [2] appears, read: endpoint: mean survival time, dose: 100.0 mg/kg/injection, schedule: Q01DX009 (ip), vehicle: saline with Tween-80.
[3] abbreviates: endpoint: mean survival time, dose: 200.0 mg/kg/injection, schedule: Q01DX009 (ip), vehicle: saline with Tween-80.
[4] abbreviates: endpoint: mean survival time, dose: 100.0 mg/kg/injection, schedule: Q04DX003 (ip), vehicle: saline with Tween-80.
The mark [5] stands for this setting: endpoint: mean survival time, dose: 200.0 mg/kg/injection, schedule: Q04DX003 (ip), vehicle: saline with Tween-80.
Where [6] appears, read: endpoint: mean survival time, dose: 400.0 mg/kg/injection, schedule: Q04DX003 (ip), vehicle: saline with Tween-80.
Setting [7] is: endpoint: mean survival time, dose: 100.0 mg/kg/injection, schedule: Q01DX001 (ip), vehicle: saline with Tween-80.
[8] abbreviates: endpoint: mean survival time, dose: 200.0 mg/kg/injection, schedule: Q01DX001 (ip), vehicle: saline with Tween-80.
The mark [9] stands for this setting: endpoint: mean survival time, dose: 400.0 mg/kg/injection, schedule: Q01DX001 (ip), vehicle: saline with Tween-80.
Where [10] appears, read: endpoint: mean survival time, dose: 100.0 mg/kg/injection, schedule: Q01DX001 (ip), vehicle: saline.
[11] abbreviates: endpoint: mean survival time, dose: 200.0 mg/kg/injection, schedule: Q01DX001 (ip), vehicle: saline.
The mark [12] stands for this setting: endpoint: mean survival time, dose: 25.0 mg/kg/injection, schedule: Q01DX009 (ip), vehicle: saline with Tween-80.

Each structure is given as a SMILES string. Toxic doses and inconclusive results are not listed.

As to `NC(Cc1ccc(N(CCCl)CCCl)cc1)C(=O)O` (stereo not drawn), the T/C is 106 % of control (endpoint: mean survival time, dose: 5.0 mg/kg/injection, schedule: Q01DX009 (ip), vehicle: Klucel (hydroxypropylcellulose) (HPC)); 121 % of control (endpoint: mean survival time, dose: 5.0 mg/kg/injection, schedule: Q01DX009 (ip), vehicle: saline with Tween-80); 104 % of control (endpoint: mean survival time, dose: 6.4 mg/kg/injection, schedule: Q01DX001 (ip), vehicle: water); 104 % of control (endpoint: mean survival time, dose: 6.4 mg/kg/injection, schedule: Q11HX001 (ip), vehicle: water); 101 % of control (endpoint: mean survival time, dose: 8.0 mg/kg/injection, schedule: Q01DX001 (ip), vehicle: water); 101 % of control (endpoint: mean survival time, dose: 8.0 mg/kg/injection, schedule: Q11HX001 (ip), vehicle: water). The T/C is 105 % of control (endpoint: mean survival time, dose: 10.0 mg/kg/injection, schedule: Q01DX001 (ip), vehicle: water); 105 % of control (endpoint: mean survival time, dose: 10.0 mg/kg/injection, schedule: Q01DX009 (ip), vehicle: Klucel (hydroxypropylcellulose) (HPC)); 113 % of control (endpoint: mean survival time, dose: 10.0 mg/kg/injection, schedule: Q01DX009 (ip), vehicle: saline with Tween-80); 183 % of control (endpoint: mean survival time, dose: 10.0 mg/kg/injection, schedule: Q03DX003 (ip), vehicle: Klucel (hydroxypropylcellulose) (HPC)); 168 % of control (endpoint: mean survival time, dose: 10.0 mg/kg/injection, schedule: Q04DX003 (ip), vehicle: Klucel (hydroxypropylcellulose) (HPC)); 105 % of control (endpoint: mean survival time, dose: 10.0 mg/kg/injection, schedule: Q11HX001 (ip), vehicle: water). For the same compound, the T/C runs as follows: (endpoint: mean survival time, dose: 12.5 mg/kg/injection, schedule: Q01DX001 (ip), vehicle: water) 104 % of control; (endpoint: mean survival time, dose: 12.5 mg/kg/injection, schedule: Q11HX001 (ip), vehicle: water) 104 % of control; (endpoint: mean survival time, dose: 20.0 mg/kg/injection, schedule: Q01DX007 (ip), vehicle: Klucel (hydroxypropylcellulose) (HPC)) 94 % of control; (endpoint: mean survival time, dose: 20.0 mg/kg/injection, schedule: Q01DX007 (ip), vehicle: saline with Tween-80) 113 % of control; (endpoint: mean survival time, dose: 20.0 mg/kg/injection, schedule: Q01DX009 (ip), vehicle: Klucel (hydroxypropylcellulose) (HPC)) 86 % of control; (endpoint: mean survival time, dose: 20.0 mg/kg/injection, schedule: Q01DX009 (ip), vehicle: saline with Tween-80) 100 % of control. The T/C was 186 % of control (endpoint: mean survival time, dose: 20.0 mg/kg/injection, schedule: Q04DX003 (ip), vehicle: Klucel (hydroxypropylcellulose) (HPC)); 183 % of control (endpoint: median survival time, dose: 4.0 mg/kg/injection, schedule: Q01DX009 (ip), vehicle: saline); 155 % of control (endpoint: median survival time, dose: 8.0 mg/kg/injection, schedule: Q01DX009 (ip), vehicle: saline); 88 % of control (endpoint: median survival time, dose: 16.0 mg/kg/injection, schedule: Q01DX009 (ip), vehicle: saline).

In the case of `Cc1ccc(C2=CSc3ccccc3N2)cc1`, the T/C was 104 % of control (endpoint: mean survival time, dose: 100.0 mg/kg/injection, schedule: Q04DX002 (ip), vehicle: other) and 104 % of control (endpoint: mean survival time, dose: 200.0 mg/kg/injection, schedule: Q04DX002 (ip), vehicle: other).

Regarding `CCC(Cl)[N+](=O)[O-]` (stereo not drawn), the T/C is, setting by setting: (endpoint: mean survival time, dose: 50.0 mg/kg/injection, schedule: Q04DX003 (ip), vehicle: Klucel (hydroxypropylcellulose) (HPC)) 97 % of control; (endpoint: mean survival time, dose: 100.0 mg/kg/injection, schedule: Q04DX003 (ip), vehicle: Klucel (hydroxypropylcellulose) (HPC)) 107 % of control; (endpoint: mean survival time, dose: 200.0 mg/kg/injection, schedule: Q04DX003 (ip), vehicle: Klucel (hydroxypropylcellulose) (HPC)) 101 % of control.

Turning to `Cc1ccc(NC(=O)OCCOc2ccc([N+](=O)[O-])cc2)cc1C`, the T/C reads like this: under setting [1], 108 % of control; under setting [2], 92 % of control; under setting [3], 92 % of control.

In the case of `CC(=N\NC(=O)c1ccccc1)/C(C)=N/NC(=O)c1ccccc1`, the T/C was 90 % of control under setting [4], 86 % of control under setting [5] and 90 % of control under setting [6].

As to `Cc1ccc2c(c1)C(=NCCCN=C1C(=O)Nc3ccc(C)cc31)C(=O)N2`, the T/C is 103 % of control under setting [7], 95 % of control under setting [8] and 98 % of control under setting [9].

With `BrC1CCC([Si](c2ccccc2)(c2ccccc2)c2ccccc2)CC1` (stereo not drawn), the T/C is, setting by setting: under setting [4], 87 % of control; under setting [5], 93 % of control; under setting [6], 93 % of control.

Regarding `O=C(O)c1cc(N2CCCCC2)ccn1`, the T/C is, setting by setting: under setting [10], 94 % of control; under setting [11], 100 % of control.

Regarding `O=C(O)c1nn2c(=O)[nH]c3ccccc3c2c1C(=O)O`, the T/C is 90 % of control (endpoint: mean survival time, dose: 12.5 mg/kg/injection, schedule: Q04DX002 (ip), vehicle: saline with Tween-80); 94 % of control (endpoint: mean survival time, dose: 25.0 mg/kg/injection, schedule: Q04DX002 (ip), vehicle: saline with Tween-80); 87 % of control (endpoint: mean survival time, dose: 50.0 mg/kg/injection, schedule: Q04DX002 (ip), vehicle: saline with Tween-80).

As for `Cc1ccc(Nc2n[nH]c(=S)s2)cc1C`, the T/C was 93 % of control under setting [4], 94 % of control under setting [5] and 109 % of control under setting [6].

Take `C[Si](C)(C)c1c(F)c(F)c(F)c(F)c1F`: the T/C was 96 % of control under setting [4], 94 % of control under setting [5] and 88 % of control under setting [6].

`CN(C=O)c1ccccc1C(=O)O`: the T/C under setting [7] is 98 % of control; the T/C under setting [2] is 96 % of control; the T/C under setting [8] is 101 % of control; the T/C under setting [3] was 91 % of control; the T/C under setting [9] was 98 % of control; the T/C (endpoint: mean survival time, dose: 400.0 mg/kg/injection, schedule: Q01DX009 (ip), vehicle: saline with Tween-80) is 97 % of control.

Consider `CC(=O)NNC(=O)c1ccccn1`, for which the T/C was 114 % of control (endpoint: mean survival time, dose: 12.5 mg/kg/injection, schedule: Q01DX009 (ip), vehicle: saline); 110 % of control (endpoint: mean survival time, dose: 25.0 mg/kg/injection, schedule: Q01DX009 (ip), vehicle: saline); 104 % of control (endpoint: mean survival time, dose: 50.0 mg/kg/injection, schedule: Q01DX009 (ip), vehicle: saline); 103 % of control (endpoint: mean survival time, dose: 50.0 mg/kg/injection, schedule: Q#A X018 (ip), vehicle: water); 101 % of control (endpoint: mean survival time, dose: 100.0 mg/kg/injection, schedule: Q01DX001 (ip), vehicle: water); 104 % of control (endpoint: mean survival time, dose: 100.0 mg/kg/injection, schedule: Q01DX009 (ip), vehicle: saline). Also, the T/C is, setting by setting: (endpoint: mean survival time, dose: 100.0 mg/kg/injection, schedule: Q01DX009 (ip), vehicle: water) 110 % of control; (endpoint: mean survival time, dose: 100.0 mg/kg/injection, schedule: Q01DX009 (sc), vehicle: water) 119 % of control; (endpoint: mean survival time, dose: 200.0 mg/kg/injection, schedule: Q01DX001 (ip), vehicle: water) 109 % of control; (endpoint: mean survival time, dose: 200.0 mg/kg/injection, schedule: Q01DX009 (sc), vehicle: water) 122 % of control.

On to `CC1(C)N=C(N)N=C(N)N1c1ccc(Cl)c(C(F)(F)F)c1`, for which the T/C reads like this: (endpoint: mean survival time, dose: 25.0 mg/kg/injection, schedule: Q04DX003 (ip), vehicle: saline with Tween-80) 109 % of control; (endpoint: mean survival time, dose: 50.0 mg/kg/injection, schedule: Q04DX003 (ip), vehicle: saline with Tween-80) 124 % of control.

For the compound `NC(CO)C(O)c1ccc(N=Nc2ccc(O)cc2)cc1` (stereo not drawn), the T/C is 100 % of control under setting [12], 104 % of control under setting [1] and 94 % of control under setting [2].

In the case of `CCOc1ccc(/C=C/c2ccc3ccccc3[n+]2C)cc1OCC`, for the setting “endpoint: mean survival time, dose: 25.0 mg/kg/injection, schedule: Q01DX001 (ip), vehicle: saline with Tween-80”, the T/C is 102 % of control.

On to `N#CCC(=O)NN=C1CCCCC1`, for which the T/C under setting [10] is 102 % of control; the T/C under setting [11] is 123 % of control; the T/C (endpoint: mean survival time, dose: 400.0 mg/kg/injection, schedule: Q01DX001 (ip), vehicle: saline) is 107 % of control.

As for `COc1cc(OC)c(NC(=O)Nc2cc(C)on2)cc1Cl`, the T/C (endpoint: mean survival time, dose: 12.5 mg/kg/injection, schedule: Q01DX009 (ip), vehicle: saline with Tween-80) is 98 % of control; the T/C under setting [12] is 92 % of control; the T/C under setting [1] is 95 % of control.
